Test results: patent US10059687B2, “Histone demethylase inhibitors” (CELGENE QUANTICEL RESEARCH, INC., priority 2015, dated 2018)

What was measured:
[1] = tested on: Jurkat cells; test: Jurkat (T-ALL) cell line proliferation assay (Cell-MTS Assay); assay type: cell-based; details: Homo sapiens, 168 hr incubation, cell gives A/B enantiomer values, read-out: Cellular IC50
Excerpt: The Jurkat (T-ALL) cell line proliferation assay (Cell-MTS Assay) is a colorimetric cellular assay to assess the ability of KDM small molecule inhibitors to effect the proliferation of the established human acute T cell leukemia cancer cell line Jurkat.
This Cell-MTS assay is a 7-day plate-based colorimetric assay which quantifies the amount of newly generated NADH in the presence and absence of test compound. These NADH levels are used as a proxy for the quantification of cancer cell proliferation.
The established cancer cell line Jurkat with a verified p53 mutation were purchased from American Type Culture Collection (ATCC) and routinely passaged according to ATCC published protocols. For routine assay these cells were seeded at a density of 10,000 cells per 96-well. 24 hr after plating, cells received an 11-point dilution of test compound with final concentration ranges from 10 μM to 0.15 nM. Cells were incubated in the presence of compound for 168 hr at 37° C., 5% CO2. At the end of this compound incubation period, 80 μl of media is removed and 20 μL of CellTiter 96® AQueous Non-Radioactive Cell Proliferation Assay solution (Promega) is added. The cells were incubated until the OD490 reached >0.6. IC50 values are calculated using the IDBS XLfit software package and include background subtracted OD490 values and normalization to DMSO controls. Cellular proliferation IC50 values are uploaded and archived using the Chem Biography Platform.

[2] = biological target: JMJD2C (Homo sapiens (Human), UniProt Q9H3R0); test: In vitro enzyme inhibition assay for JMJD2C activity (TR-FRET); assay type: biochemical
Procedure: This assay determines the ability of a test compound to inhibit JMJD2C demethylase activity. Baculovirus expressed JMJD2C (GenBank Accession #BC143571, AA 2-372) was purchased from BPS Bioscience (Cat#50105).
The ability of test compounds to inhibit the activity of JMJD2C was determined in 384-well plate format under the following reaction conditions: 0.3 nM JMJD2C, 300 nM H3K9me3-biotin labeled peptide (Anaspec cat #64360), 2 μM alpha-ketoglutaric acid in assay buffer of 50 mM HEPES, pH7.3, 0.005% Brij35, 0.5 mM TCEP, 0.2 mg/ml BSA, 50 μM sodium L-ascorbate, and 2 μM ammonium iron(II) sulfate. Reaction product was determined quantitatively by TR-FRET after the addition of detection reagent Phycolink Streptavidin-allophycocyanin (Prozyme) and Europium-anti-di-methylated histone H3 lysine 9 (H3K9me2) antibody (PerkinElmer) in the presence of 5 mM EDTA in LANCE detection buffer (PerkinElmer) at a final concentration of 50 nM and 1 nM, respectively.
(§1) The assay reaction was initiated by the following: 2 μl of the mixture of 900 nM H3K9me3-biotin labeled peptide and 6 μM alpha-ketoglutaric acid with 2 μl of 11-point serial diluted inhibitor in 3% DMSO were added to each well of the plate, followed by the addition of 2 μl of 0.9 nM JMJD2C to initiate the reaction. The reaction mixture was incubated at RT for 30 min, and terminated by the addition of 6 μl of 5 mM EDTA in LANCE detection buffer containing 100 nM Phycolink Streptavidin-allophycocyanin and 2 nM Europium-anti-H3K9me2 antibody. Plates were read by EnVisionMultilabel Reader in TR-FRET mode (excitation at 320 nm, emission at 615 nm and 665 nm) after 1 hr incubation at RT. A ratio was calculated (665/615) for each well and fitted to determine inhibition constant (IC50).

[3] = biological target: Jarid1B (Homo sapiens (Human), UniProt Q9UGL1); test: In vitro enzyme inhibition assay for Jarid1B activity (TR-FRET); assay type: biochemical
Procedure: The ability of test compounds to inhibit the activity of Jarid1B was determined in 384-well plate format under the following reaction conditions: 0.8 nM Jarid1B, 300 nM H3K4me3-biotin labeled peptide (Anaspec cat #64357), 2 μM alpha-ketoglutaric acid in assay buffer of 50 mM HEPES, pH7.3, 0.005% Brij35, 0.5 mM TCEP, 0.2 mg/ml BSA, 50 μM sodium L-ascorbate, and 2 μM ammonium iron(II) sulfate. Reaction product was determined quantitatively by TR-FRET after the addition of detection reagent Phycolink Streptavidin-allophycocyanin (Prozyme) and Europium-anti-H3K4me or -H3K4me2 antibody (PerkinElmer) in the presence of 5 mM EDTA in LANCE detection buffer (PerkinElmer) at a final concentration of 25 nM and 1 nM, respectively.
as §1, with “nM H3K4me3-biotin” for “nM H3K9me3-biotin”, “DMSO was” for “DMSO were”, “of 2.4” for “of 0.9”, “nM Jarid1B” for “nM JMJD2C”, “containing 50” for “containing 100”, “nM Europium-anti-H3K4me/H3K4me2” for “nM Europium-anti-H3K9me2”

[4] = tested on: esophageal squamous cell carcinoma KYSE-150 cells; test: Cellular IC50 in KYSE-150 cells; assay type: cell-based; details: Homo sapiens, one class given per A and B pair
Excerpt: Table 7 provides IC50 values of various compounds disclosed herein, tested in cellular human esophageal squamous cell carcinoma KYSE-150 cells: […]

[5] = biological target: JMJD3 (Homo sapiens, UniProt O15054); test: In vitro enzyme inhibition assay for JMJD3 activity (TR-FRET); assay type: biochemical; details: Table 5; one class given per A and B pair
Procedure: This assay determines the ability of a test compound to inhibit JMJD3 demethylase activity. Baculovirus expressed JMJD3 (GenBank Accession #NM-001080424, AA1043-end) was purchased from BPS Bioscience (Cat#50115).
The enzymatic assay of JMJD3 activity is based upon Time Resolved-Fluorescence Resonance Energy Transfer (TR-FRET) detection. The ability of test compounds to inhibit the activity of JMJD3 was determined in 384-well plate format under the following reaction conditions: 5 nM JMJD3, 250 nM H3K27me3-biotin labeled peptide (Anaspec cat #64367), 0.4 to 2 μM α-ketoglutaric acid in assay buffer of 50 mM HEPES, pH7.3, 0.005% Brij35, 0.5 mM TCEP, 0.2 mg/ml BSA, 50 μM sodium L-ascorbate, and 5 μM ammonium iron(II) sulfate. Reaction product was determined quantitatively by TR-FRET after the addition of detection reagent Phycolink Streptavidin-allophycocyanin (Prozyme) and Europium-anti-H3K27me2 antibody (PerkinElmer) in the presence of 5 mM EDTA in LANCE detection buffer (PerkinElmer) at a final concentration of 50 nM and 1 nM, respectively.
The assay reaction was initiated by the following: […] of the mixture of 750 nM H3K27me3-biotin labeled peptide and 1.2 to 6 μM alpha-ketoglutaric acid with 2 μL of 11-point serial diluted inhibitor in 3% DMSO were added to each well of plate, followed by the addition of 2 μl of 15 nM JMJD3 to initiate the reaction. The reaction mixture was incubated at RT for 30 min, and terminated by the addition of 6 μL of 5 mM EDTA in LANCE detection buffer containing 100 nM Phycolink Streptavidin-allophycocyanin and 2 nM Europium-anti-H3K27me2 antibody. Plates were read by EnVisionMultilabel Reader in TR-FRET mode (excitation at 320 nm, emission at 615 nm and 665 nm) after 1 hr incubation at RT. A ratio from the readout of 665/615 was calculated for each well and fitted to determine inhibition constant (IC50).

[6] = Table 4, cell gives A/B enantiomer values
[7] = Table 5, one class given per A and B pair

Jarid1B, sequence (Q9UGL1 whole entry, species assumed): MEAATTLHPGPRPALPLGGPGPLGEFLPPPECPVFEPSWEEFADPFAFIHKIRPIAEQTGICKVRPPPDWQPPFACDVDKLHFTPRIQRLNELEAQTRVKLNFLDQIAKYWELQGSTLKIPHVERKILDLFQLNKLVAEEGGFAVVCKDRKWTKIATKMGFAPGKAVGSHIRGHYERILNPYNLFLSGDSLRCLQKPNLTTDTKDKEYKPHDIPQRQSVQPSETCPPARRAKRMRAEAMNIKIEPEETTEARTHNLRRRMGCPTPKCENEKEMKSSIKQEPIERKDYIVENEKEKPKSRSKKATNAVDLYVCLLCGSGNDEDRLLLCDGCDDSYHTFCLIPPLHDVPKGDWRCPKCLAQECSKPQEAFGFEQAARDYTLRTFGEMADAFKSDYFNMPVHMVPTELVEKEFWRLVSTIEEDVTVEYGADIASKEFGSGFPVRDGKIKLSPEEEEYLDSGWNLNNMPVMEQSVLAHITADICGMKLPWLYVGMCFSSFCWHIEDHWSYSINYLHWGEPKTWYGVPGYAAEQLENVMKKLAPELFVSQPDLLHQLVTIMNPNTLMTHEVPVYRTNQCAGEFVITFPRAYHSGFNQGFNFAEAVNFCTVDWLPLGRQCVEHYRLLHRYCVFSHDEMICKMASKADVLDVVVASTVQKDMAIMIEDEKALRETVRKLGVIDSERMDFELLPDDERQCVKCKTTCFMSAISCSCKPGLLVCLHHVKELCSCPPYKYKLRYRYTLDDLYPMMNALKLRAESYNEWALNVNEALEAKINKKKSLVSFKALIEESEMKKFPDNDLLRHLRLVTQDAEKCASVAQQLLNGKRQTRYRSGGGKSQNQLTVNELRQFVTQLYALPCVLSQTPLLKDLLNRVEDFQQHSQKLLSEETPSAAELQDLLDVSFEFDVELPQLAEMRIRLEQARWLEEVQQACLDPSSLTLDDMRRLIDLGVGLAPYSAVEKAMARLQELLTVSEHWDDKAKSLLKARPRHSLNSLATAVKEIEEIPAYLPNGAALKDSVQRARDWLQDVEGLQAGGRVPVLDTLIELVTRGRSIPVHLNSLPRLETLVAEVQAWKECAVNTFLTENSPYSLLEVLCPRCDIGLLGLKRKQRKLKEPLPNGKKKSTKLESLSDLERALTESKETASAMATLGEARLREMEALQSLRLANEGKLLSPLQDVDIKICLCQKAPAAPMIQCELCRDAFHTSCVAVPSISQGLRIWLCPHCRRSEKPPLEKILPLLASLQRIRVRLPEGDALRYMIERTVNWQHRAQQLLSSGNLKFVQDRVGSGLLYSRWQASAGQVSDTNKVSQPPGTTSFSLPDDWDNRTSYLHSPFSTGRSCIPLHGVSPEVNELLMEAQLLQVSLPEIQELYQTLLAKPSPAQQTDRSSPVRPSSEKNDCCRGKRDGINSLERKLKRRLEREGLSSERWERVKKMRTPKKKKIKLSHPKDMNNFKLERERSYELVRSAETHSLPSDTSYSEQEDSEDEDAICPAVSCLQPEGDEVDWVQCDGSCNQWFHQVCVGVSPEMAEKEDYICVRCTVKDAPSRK
JMJD2C, sequence (Q9H3R0 2-372): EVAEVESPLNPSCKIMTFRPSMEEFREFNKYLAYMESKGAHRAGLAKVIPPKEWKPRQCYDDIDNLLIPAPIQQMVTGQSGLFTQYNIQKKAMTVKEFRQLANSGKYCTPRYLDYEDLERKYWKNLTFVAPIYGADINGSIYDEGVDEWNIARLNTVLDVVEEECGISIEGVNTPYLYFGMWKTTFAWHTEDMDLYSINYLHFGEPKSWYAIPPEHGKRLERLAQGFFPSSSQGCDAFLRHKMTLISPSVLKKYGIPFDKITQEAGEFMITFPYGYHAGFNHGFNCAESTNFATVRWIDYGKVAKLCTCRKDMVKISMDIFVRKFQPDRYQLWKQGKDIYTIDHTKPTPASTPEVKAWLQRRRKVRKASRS

IC50 [1] [µM]	IC50 [2, 6] [µM]	IC50 [2, 7] [µM]	IC50 [3, 6] [µM]	IC50 [3, 7] [µM]	IC50 [4] [µM]	IC50 [5] [µM]	Compound
≤ 0.1	0.1 to 1	0.1 to 1	≤ 0.1	≤ 0.1	1 to 10	–	Cc1ccc(N(C)c2ccc3c(c2)CCN[C@@H]3CNc2cnccc2C(=O)O)cc1 [Example 1A, 3-[({(1S)-6-[methyl(4-methylphenyl)amino]-1,2,3,4-tetrahydroisoquinolyl}methyl)amino]pyridine-4-carboxylic acid]
–	–	0.1 to 1	–	≤ 0.1	≤ 0.1	1 to 10	CCc1ccc(N(C)c2ccc3c(c2)CCN(C)[C@@H]3CNc2cnccc2C(=O)O)cc1 [Example 13B, (S)-3-(((6-((4-ethylphenyl)(methyl)amino)-2-methyl-1,2,3,4-tetrahydro-isoquinolin-1-yl)methyl)amino)isonicotinic acid]
–	–	1 to 10	–	≤ 0.1	≤ 0.1	1 to 10	CCCc1ccc(N(C)c2ccc3c(c2)CCN(C)[C@H]3CNc2cnccc2C(=O)O)cc1 [Example 14A, (R)-3-(((2-methyl-6-(methyl (4-propylphenyl)amino)-1,2,3,4-tetrahydroisoquinolin-1-yl)methyl)amino)isonicotinic acid]
–	–	1 to 10	–	≤ 0.1	≤ 0.1	1 to 10	CCCc1ccc(N(C)c2ccc3c(c2)CCN(C)[C@@H]3CNc2cnccc2C(=O)O)cc1 [Example 14B, (S)-3-(((2-methyl-6-(methyl (4-propylphenyl)amino)-1,2,3,4-tetrahydroisoquinolin-1-yl)methyl)amino)isonicotinic acid]
–	–	0.1 to 1	–	≤ 0.1	≤ 0.1	1 to 10	Cc1ccc(N(C)c2ccc3c(c2)CN(C)[C@H]3CNc2cnccc2C(=O)O)cc1 [Example 18A, (R)-3-(((2-methyl-5-(methyl(p-tolyl)amino)isoindolin-1-yl)methyl)amino) isonicotinic acid]
–	–	0.1 to 1	–	≤ 0.1	≤ 0.1	1 to 10	Cc1ccc(N(C)c2ccc3c(c2)CN(C)[C@@H]3CNc2cnccc2C(=O)O)cc1 [Example 18B, (S)-3-(((2-methyl-5-(methyl(p-tolyl)amino)isoindolin-1-yl)methyl)amino) isonicotinic acid]
–	–	0.1 to 1	–	≤ 0.1	≤ 0.1	1 to 10	CCc1ccc(N(C)c2ccc3c(c2)CN(C)[C@H]3CNc2cnccc2C(=O)O)cc1 [Example 19A, (R)-3-(((5-((4-ethylphenyl)(methyl)amino)-2-methylisoindolin-1-yl)methyl)amino)isonicotinic acid]
–	–	0.1 to 1	–	≤ 0.1	≤ 0.1	1 to 10	CCc1ccc(N(C)c2ccc3c(c2)CN(C)[C@@H]3CNc2cnccc2C(=O)O)cc1 [Example 19B, (S)-3-(((5-((4-ethylphenyl)(methyl)amino)-2-methylisoindolin-1-yl)methyl)amino)isonicotinic acid]
–	–	0.1 to 1	–	≤ 0.1	≤ 0.1	1 to 10	CCCc1ccc(N(C)c2ccc3c(c2)CN(C)[C@H]3CNc2cnccc2C(=O)O)cc1 [Example 20A, (R)-3-(((2-methyl-5-(methyl (4-propylphenyl)amino)isoindolin-1-yl)methyl)amino)isonicotinic acid]
–	–	0.1 to 1	–	≤ 0.1	≤ 0.1	1 to 10	CCCc1ccc(N(C)c2ccc3c(c2)CN(C)[C@@H]3CNc2cnccc2C(=O)O)cc1 [Example 20B, (S)-3-(((2-methyl-5-(methyl (4-propylphenyl)amino)isoindolin-1-yl)methyl)amino)isonicotinic acid]
–	–	0.1 to 1	–	≤ 0.1	≤ 0.1	1 to 10	Cc1ccccc1-c1ccc2c(c1)CN(C)[C@H]2CNc1cnccc1C(=O)O [Example 21A, (R)-3-(((2-methyl-5-(o-tolyl)isoindolin-1-yl)methyl)amino)isonicotinic acid]
–	–	0.1 to 1	–	≤ 0.1	≤ 0.1	1 to 10	Cc1ccccc1-c1ccc2c(c1)CN(C)[C@@H]2CNc1cnccc1C(=O)O [Example 21B, (S)-3-(((2-methyl-5-(o-tolyl)isoindolin-1-yl)methyl)amino)isonicotinic acid]
–	–	0.1 to 1	–	≤ 0.1	≤ 0.1	1 to 10	CCc1ccccc1-c1ccc2c(c1)CN(C)[C@H]2CNc1cnccc1C(=O)O [Example 22A, (R)-3-(((5-(2-ethylphenyl)-2-methyl-isoindolin-1-yl)methyl)amino) isonicotinic acid]
–	–	0.1 to 1	–	≤ 0.1	≤ 0.1	1 to 10	CCc1ccccc1-c1ccc2c(c1)CN(C)[C@@H]2CNc1cnccc1C(=O)O [Example 22B, (S)-3-(((5-(2-ethylphenyl)-2-methyl-isoindolin-1-yl)methyl)amino) isonicotinic acid]
